The text below walks through data of patent US7501430B2 (ArQule, Inc., priority 2006, dated 2009).

As a reminder, the inhibition is the change of the read-out against control, counted positive when it falls. As a reminder, the IC50 is the concentration needed to halve the response being measured.

The target in the first test is T1, mutant B-RAF (Homo sapiens, UniProt P15056, V600E).
T1 construct: purchased Upstate (Charlottesville, Va.)
T1 sequence (P15056 whole entry V600E): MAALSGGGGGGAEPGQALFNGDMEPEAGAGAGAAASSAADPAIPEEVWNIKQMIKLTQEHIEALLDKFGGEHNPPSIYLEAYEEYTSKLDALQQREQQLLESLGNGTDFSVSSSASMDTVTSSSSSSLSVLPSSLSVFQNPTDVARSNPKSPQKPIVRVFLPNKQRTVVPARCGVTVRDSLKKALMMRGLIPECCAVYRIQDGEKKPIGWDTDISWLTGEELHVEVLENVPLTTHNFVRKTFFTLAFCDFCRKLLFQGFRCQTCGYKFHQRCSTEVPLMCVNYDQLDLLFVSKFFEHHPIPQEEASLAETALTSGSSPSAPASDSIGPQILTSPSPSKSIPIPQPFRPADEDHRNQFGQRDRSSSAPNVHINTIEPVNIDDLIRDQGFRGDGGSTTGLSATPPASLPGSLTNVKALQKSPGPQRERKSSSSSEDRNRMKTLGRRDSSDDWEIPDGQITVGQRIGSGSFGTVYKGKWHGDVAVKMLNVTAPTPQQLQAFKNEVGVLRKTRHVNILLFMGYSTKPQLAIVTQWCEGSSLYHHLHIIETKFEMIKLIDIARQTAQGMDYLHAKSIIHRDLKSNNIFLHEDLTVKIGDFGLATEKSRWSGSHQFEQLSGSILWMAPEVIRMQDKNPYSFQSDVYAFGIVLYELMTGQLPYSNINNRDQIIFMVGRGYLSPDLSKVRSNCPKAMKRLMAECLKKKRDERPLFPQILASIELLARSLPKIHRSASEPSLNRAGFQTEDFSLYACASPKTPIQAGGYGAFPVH
Kind of test: RAF biochemical assay (MEK-1 phosphorylation, anti-phospho MEK1/2 detection). The note with it: @ 3 uM. In short, it runs like this: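 Detection is by ELISA: after a 30 min room-temperature reaction, plate-captured GST-MEK-1 is probed with anti-phospho MEK1/2, then an AP-tagged secondary antibody with fluorescent Attophos read-out.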
For the molecule `O=S(=O)(c1ccc(Cl)cc1)N1CCC[C@@H](Nc2nccc(-c3c(-c4ccc(F)c(F)c4)nc4sccn34)n2)C1` [Example 114, N-{(3R)-1-[(4-chlorophenyl)sulfonyl]piperidin-3-yl}-4-[6-(3,4-difluorophenyl)imidazo[2,1-b][1,3]thiazol-5-yl]pyrimidin-2-amine], testing at 3 µM gave an inhibition of 48%.
The same measure, in the same setting: as for `O=S(=O)(c1ccc(C(F)(F)F)cc1)N1CCC(Nc2nccc(-c3c(-c4ccc(F)cc4)nc4occn34)n2)CC1` [Example 239, 4-[6-(4-fluorophenyl)imidazo[2,1-b][1,3]oxazol-5-yl]-N-(1-{[4-(trifluoromethyl)phenyl]sulfonyl}piperidin-4-yl)pyrimidin-2-amine], the figure is 52%.

Still in this test, the particulars now being: @ 5 uM.
In turn, `O=S(=O)(c1cccc(F)c1)N1CCC(Nc2nccc(-c3c(-c4ccc(F)cc4)nc4occn34)n2)CC1` [Example 237, 4-[6-(4-fluorophenyl)imidazo[2,1-b][1,3]oxazol-5-yl]-N-{1-[(3-fluorophenyl)sulfonyl]piper-idin-4-yl}pyrimidin-2-amine] had an inhibition at 5 µM of 85%.

Staying with this test, now noted: @ 10 uM; read-out: Mutant B-RAF % inhibition.
Take `CN(C)c1ccc(NC(=O)N2CCC[C@@H](Nc3nccc(-c4c(-c5ccc(F)c(F)c5)nc5sccn45)n3)C2)cc1` [Example 86, (3R)-3-({4-[6-(3,4-difluorophenyl)imidazo[2,1-b][1,3]thiazol-5-yl]pyrimidin-2-yl}amino)-N-[4-(dimethylamino)phenyl]pip-eridine-1-carboxamide]: the inhibition at 10 µM was found to be 54%.
As for `Nc1c(Cl)c(Cl)nc(C(=O)N2CCC(Nc3nccc(-c4c(-c5ccc(F)cc5)nc5occn45)n3)CC2)c1Cl` [Example 209, N-{1-[(4-amino-3,5,6-trichloropyridin-2-yl)carbonyl]piperidin-4-yl}-4-[6-(4-fluorophenyl)imidazo[2,1-b][1,3]oxazol-5-yl]pyrimidin-2-amine], the inhibition at 10 µM was 49%.
As to `O=C(Nc1ccc(F)c(F)c1)N1CCC[C@@H](Nc2nccc(-c3c(-c4ccc(F)cc4)nc4occn34)n2)C1` [Example 73, (3R)-N-(3,4-difluorophenyl)-3-({4-[6-(4-fluorophenyl)imidazo[2,1-b][1,3]oxazol-5-yl]pyrimidin-2-yl}amino)piperidine-1-carboxamide], the inhibition at 10 µM came out at 37%.
Regarding `O=C(Nc1ccccc1F)N1CCC(Nc2nccc(-c3c(-c4ccc(F)cc4)nc4occn34)n2)CC1` [Example 187, N-(2-fluorophenyl)-4-({4-[6-(4-fluorophenyl)imidazo[2,1-b][1,3]oxazol-5-yl]pyrimidin-2-yl}amino)piperidine-1-carboxamide], the inhibition at 10 µM was found to be 10%.
As to `O=C(C1CCCCC1)N1CCC(Nc2nccc(-c3c(-c4ccc(F)cc4)nc4occn34)n2)CC1` [Example 164, N-[1-(cyclohexylcarbonyl)piperidin-4-yl]-4-[6-(4-fluorophenyl)imidazo[2,1-b][1,3]oxazol-5-yl]pyrimidin-2-amine], the inhibition at 10 µM worked out at 38%.
For `CS(=O)(=O)N1CCC(Nc2nccc(-c3c(-c4cccc(C(F)(F)F)c4)nc4occn34)n2)CC1` [Example 309, N-[1-(methylsulfonyl)piperidin-4-yl]-4-{6-(3-(trifluoromethyl)phenyl]imidazo[2,b][1,3]oxazol-5-yl)pyrimidin-2-amine], the inhibition at 10 µM is 33%.

The test is the same for the next values; noted with them: read-out: Mutant B-RAF IC50.
For `COc1cccc(-c2nc3occn3c2-c2ccnc(N[C@@H]3CCCNC3)n2)c1` [Example 115, 4-[6-(3-methoxyphenyl)imidazo[2,1-b][1,3]oxazol-5-yl]-N-[(3R)-piperidin-3-yl]pyrimidin-2-amine], the IC50 was greater than 10000 nM.
On the same count and under the same terms, as for `O=S(=O)(C1CC1)N1CCC(Nc2nccc(-c3c(-c4ccc(F)c(O)c4)nc4sccn34)n2)CC1` [Example 354, 5-[5-(2-{[1-(cyclopropylsulfonyl)piperidin-4-yl]amino}pyrimidin-4-yl)imidazo[2,1-b][1,3]thiazol-6-yl]-2-fluorophenol], the figure is 0.03 nM; as for `CC(=O)Nc1ccc(-c2nc3sccn3c2-c2ccnc(NC3CCN(S(=O)(=O)c4ccc(Cl)cc4)CC3)n2)cc1` [Example 259, N-(4-{5-[2-({1-[(4-chlorophenyl)sulfonyl]piperidin-4-yl}amino)pyrimidin-4-yl]imidazo[2,1-b][1,3]thiazol-6-yl}phenyl)acetamide], greater than 3000 nM; as for `N[C@@H](CCC(=O)O)C(=O)N1CCC(Nc2nccc(-c3c(-c4ccc(F)cc4)nc4occn34)n2)CC1` [Example 196, (4S)-4-amino-5-[4-({4-[6-(4-fluorophenyl)imidazo[2,1-b][1,3]oxazol-5-yl]pyrimidin-2-yl}amino)piperidin-1-yl]-5-oxopentanoic acid], 3320 nM.
Regarding `O=C(O)c1ccc(S(=O)(=O)N2CCC(Nc3nccc(-c4c(-c5ccc(F)cc5)nc5occn45)n3)CC2)cc1` [Example 229, 4-{[4-({4-[6-(4-fluorophenyl)imidazo[2,1-b][1,3]oxazol-5-yl]pyrimidin-2-yl}amino)piperidin-1-yl]sulfonyl)benzoic acid], the IC50 was determined as 1370 nM.
The same measure, in the same setting: the figure for `NCC(=O)Nc1ccccc1-c1nc2sccn2c1-c1ccnc(N[C@@H]2CCCN(S(=O)(=O)c3ccc(Cl)cc3)C2)n1` [Example 141, N~1~-(2-{5-[2-({(3R)-1-[(4-chlorophenyl)sulfonyl]piperidin-3-yl}amino)pyrimidin-4-yl]imidazo[2,1-b][1,3]thiazol-6-yl}phenyl)glycinamide] is 814 nM.
`Cc1nc(S(=O)(=O)N2CCC(Nc3nccc(-c4c(-c5ccc(F)cc5)nc5occn45)n3)CC2)cn1C` [Example 248, N-{1-[(1,2-dimethyl-1H-imidazol-4-yl)sulfonyl]piperidin-4-yl}-4-[6-(4-fluorophenyl)imidazo[2,1-b][1,3]oxazol-5-yl]pyrimidin-2-amine]: the IC50 came to 931 nM.
With `O=S(=O)(c1ccc(O)cc1)N1CCC[C@@H](Nc2nccc(-c3c(-c4cccc(O)c4)nc4sccn34)n2)C1` [Example 150, 3-{5-[2-({(3R)-1-[(4-hydroxyphenyl)sulfonyl]piperidin-3-yl}amino)pyrimidin-4-yl]imidazo[2,1-b][1,3]thiazol-6-yl}phenol], the IC50 amounted to 9 nM.
The same measure, in the same setting: as for `O=S(=O)(c1ccc(Cl)cc1)N1CCC(Nc2nccc(-c3c(-c4ccc(F)cc4)nc4sccn34)n2)CC1` [Example 255, N-{1-[(4-chlorophenyl)sulfonyl]piperidin-4-yl}-4-[6-(4-fluorophenyl)imidazo[2,1-b][1,3]thiazol-5-yl]pyrimidin-2-amine], the figure is 696 nM; as for `O=S(=O)(c1ccc(Cl)cc1)N1CCC[C@@H](Nc2nccc(-c3c(-c4ccc(F)cc4)nc4occn34)n2)C1` [Example 43, N-{(3R)-1-[(4-chlorophenyl)sulfonyl]piper-idin-3-yl}-4-[6-(4-fluorophenyl)imidazo[2,1-b][1,3]oxazol-5-yl]pyrimidin-2-amine], 143 nM.
Same read-out and setting: the figure for `COc1cccc(-c2nc3sccn3c2-c2ccnc(N[C@@H]3CCCN(S(=O)(=O)c4ccc(F)cc4)C3)n2)c1` [Example 82, N-{(3R)-1-[(4-fluorophenyl)sulfonyl]piper-idin-3-yl}-4-(6-(3-methoxyphenyl)imidazo[2,1-b][1,3]thiazot-5-yl]pyrimidin-2-amine] is 192 nM.
On the same count and under the same terms, as for `CS(=O)(=O)N1CCC[C@@H](Nc2nccc(-c3c(-c4cccc(O)c4)nc4sccn34)n2)C1` [Example 152, 3-[5-(2-{[(3R)-1-(methylsulfonyl)piperidin-3-yl]amino}pyrimidin-4-yl)imidazo[2,1-b][1,3]thiazol-6-yl]phenol], the figure is 116 nM.
In the case of `O=S(=O)(c1ccc(Cl)cc1)N1CCC[C@@H](Nc2nccc(-c3c(-c4cccc(CO)c4)nc4sccn34)n2)C1` [Example 396, (3-{5-[2-({(3R)-1-[(4-chlorophenyl)sulfonyl]piperidin-3-yl}amino)pyrimidin-4-yl]imidazo[2,1-b][1,3]thiazol-6-yl}phenyl)methanol], the IC50 amounted to 1600 nM.
Still for that read-out and setting: the figure for `CS(=O)(=O)N1CCC(Nc2nccc(-c3c(-c4cccc(O)c4)nc4sccn34)n2)CC1` [Example 332, 3-[5-(2-{[1-(methylsulfonyl)piperidin-4-yl]amino}pyrimidin-4-yl)imidazo[2,1-b][1,3]thiazol-6-yl}phenol] is 10 nM.
Still for that read-out and setting: the figure for `O=C(Nc1ccc(O)cc1)N1CCC[C@@H](Nc2nccc(-c3c(-c4cccc(O)c4)nc4sccn34)n2)C1` [Example 343, (3R)-N-(4-hydroxyphenyl)-3-({4-[6-(3-hydroxyphenyl)imidazo[2,1-b][1,3]thiazol-5-yl]pyrimidin-2-yl}amino)piperidine-1-carboxamide] is 1440 nM; for `O=S(=O)(c1ccc(Cl)cc1)N1CCC[C@@H](Nc2nccc(-c3c(-c4ccc(O)c(O)c4)nc4sccn34)n2)C1` [Example 134, 4-{5-[2-({(3R)-1-[(4-chlorophenyl)sulfonyl]piperidin-3-yl}amino)pyrimidin-4-yl]imidazo[2,1-b][1,3]thiazol-6-yl}benzene-1,2-diol] it is 24 nM; for `O=C(C1CCNCC1)N1CCC(Nc2nccc(-c3c(-c4ccc(F)cc4)nc4occn34)n2)CC1` [Example 162, 4-[6-(4-fluorophenyl)imidazo[2,1-b][1,3]oxazol-5-yl]-N-[1-(piperidin-4-ylcarbonyl)piper-idin-4-yl]pyrimidin-2-amine] it is 1320 nM.
As to `COc1ccccc1-c1nc2sccn2c1-c1ccnc(N[C@@H]2CCCNC2)n1` [Example 102, 4-[6-(2-methoxyphenyl)imidazo[2,1-b][1,3]thiazol-5-yl]-N-[(3R)-piperidin-3-yl]pyrimidin-2-amine], the IC50 is 1280 nM.

Still in this test, the particulars now being: read-out: Mutant B-RAF IC50 (uM) or % inhibition.
As to `O=S(=O)(c1ccsc1)N1CCC[C@@H](Nc2nccc(-c3c(-c4cccc(O)c4)nc4occn34)n2)C1` [Example 399, 3-[5-(2-{[(3R)-1-(3-thienylsulfonyl)piperidin-3-yl]amino}pyrimidin-4-yl)imidazo[2,1-b][1,3]oxazol-6-yl]phenol], the IC50 was greater than 3000 nM.
